Reference: patent publication US20250346616A1 (DIZAL (JIANGSU) PHARMACEUTICAL CO., LTD., priority 2022, published 2025)

How the values were obtained:
Recombinant ROCK1 = Recombinant ROCK1 (Homo sapiens (Human), UniProt Q13464); assay: Lance Ultra Kinase Assay, ROCK1 inhibition; format: biochemical; conditions: ATP at Km, 30 min pre-incubation, 1 h reaction
Recombinant ROCK2 = Recombinant ROCK2 (Homo sapiens (Human), UniProt O75116); assay: Lance Ultra Kinase Assay, ROCK2 inhibition; format: biochemical; conditions: ATP at Km, 30 min pre-incubation, 1 h reaction
Sequence of Recombinant ROCK2 (O75116 whole entry): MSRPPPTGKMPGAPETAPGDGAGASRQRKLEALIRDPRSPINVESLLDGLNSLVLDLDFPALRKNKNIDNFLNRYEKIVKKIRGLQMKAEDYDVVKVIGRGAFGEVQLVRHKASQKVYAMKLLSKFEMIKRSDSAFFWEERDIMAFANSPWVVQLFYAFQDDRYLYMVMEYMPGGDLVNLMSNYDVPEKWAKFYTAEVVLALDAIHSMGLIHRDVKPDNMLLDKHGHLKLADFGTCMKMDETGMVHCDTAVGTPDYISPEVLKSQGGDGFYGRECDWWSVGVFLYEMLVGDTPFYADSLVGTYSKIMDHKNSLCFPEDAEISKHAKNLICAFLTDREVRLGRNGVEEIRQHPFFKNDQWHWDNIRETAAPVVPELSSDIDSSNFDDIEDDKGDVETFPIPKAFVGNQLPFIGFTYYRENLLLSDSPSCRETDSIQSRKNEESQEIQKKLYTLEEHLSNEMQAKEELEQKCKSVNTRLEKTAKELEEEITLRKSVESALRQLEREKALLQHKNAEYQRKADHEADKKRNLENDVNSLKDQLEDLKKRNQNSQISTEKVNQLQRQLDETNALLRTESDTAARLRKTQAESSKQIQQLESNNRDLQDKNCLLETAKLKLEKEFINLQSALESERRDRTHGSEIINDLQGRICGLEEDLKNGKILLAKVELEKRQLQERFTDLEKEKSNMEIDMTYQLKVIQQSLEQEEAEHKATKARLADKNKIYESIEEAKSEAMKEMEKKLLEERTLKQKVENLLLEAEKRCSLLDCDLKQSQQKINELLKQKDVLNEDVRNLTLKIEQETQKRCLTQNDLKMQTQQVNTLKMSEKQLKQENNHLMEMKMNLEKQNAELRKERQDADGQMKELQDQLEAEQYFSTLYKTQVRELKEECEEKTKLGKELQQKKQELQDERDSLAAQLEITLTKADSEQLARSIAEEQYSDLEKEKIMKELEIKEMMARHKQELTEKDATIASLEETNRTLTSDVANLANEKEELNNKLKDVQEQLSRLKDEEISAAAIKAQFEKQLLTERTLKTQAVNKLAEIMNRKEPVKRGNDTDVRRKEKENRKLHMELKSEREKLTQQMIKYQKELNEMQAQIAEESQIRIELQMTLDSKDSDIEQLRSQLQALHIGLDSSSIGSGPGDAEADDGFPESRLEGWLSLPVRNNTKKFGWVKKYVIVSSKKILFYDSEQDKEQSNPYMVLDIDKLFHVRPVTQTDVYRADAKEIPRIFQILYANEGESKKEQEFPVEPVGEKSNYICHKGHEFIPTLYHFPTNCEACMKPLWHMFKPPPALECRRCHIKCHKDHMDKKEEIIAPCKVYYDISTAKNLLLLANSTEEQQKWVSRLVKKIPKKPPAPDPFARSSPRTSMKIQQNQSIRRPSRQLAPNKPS
Protocol: The inhibition potency of compounds against these enzymes was assessed using Lance Ultra Kinase Assay. In brief, recombinant kinases were pre-incubated in the presence or absence of compound at room temperature for 30 minutes. The reaction was initiated by the addition of the ATP (Km) and substrate peptide which could be phosphorylated by kinases in the reaction. After 1 h incubation, the reaction was stopped by the addition of the detection reagent mix containing EDTA. The fluorescence was measured at 615 nm and 665 nm, respectively with excitation wavelength at 320 nm. The calculated signal ratio of 665 nm/615 nm is proportional to the kinase activity.

Sequence of Recombinant ROCK1 (Q13464 whole entry): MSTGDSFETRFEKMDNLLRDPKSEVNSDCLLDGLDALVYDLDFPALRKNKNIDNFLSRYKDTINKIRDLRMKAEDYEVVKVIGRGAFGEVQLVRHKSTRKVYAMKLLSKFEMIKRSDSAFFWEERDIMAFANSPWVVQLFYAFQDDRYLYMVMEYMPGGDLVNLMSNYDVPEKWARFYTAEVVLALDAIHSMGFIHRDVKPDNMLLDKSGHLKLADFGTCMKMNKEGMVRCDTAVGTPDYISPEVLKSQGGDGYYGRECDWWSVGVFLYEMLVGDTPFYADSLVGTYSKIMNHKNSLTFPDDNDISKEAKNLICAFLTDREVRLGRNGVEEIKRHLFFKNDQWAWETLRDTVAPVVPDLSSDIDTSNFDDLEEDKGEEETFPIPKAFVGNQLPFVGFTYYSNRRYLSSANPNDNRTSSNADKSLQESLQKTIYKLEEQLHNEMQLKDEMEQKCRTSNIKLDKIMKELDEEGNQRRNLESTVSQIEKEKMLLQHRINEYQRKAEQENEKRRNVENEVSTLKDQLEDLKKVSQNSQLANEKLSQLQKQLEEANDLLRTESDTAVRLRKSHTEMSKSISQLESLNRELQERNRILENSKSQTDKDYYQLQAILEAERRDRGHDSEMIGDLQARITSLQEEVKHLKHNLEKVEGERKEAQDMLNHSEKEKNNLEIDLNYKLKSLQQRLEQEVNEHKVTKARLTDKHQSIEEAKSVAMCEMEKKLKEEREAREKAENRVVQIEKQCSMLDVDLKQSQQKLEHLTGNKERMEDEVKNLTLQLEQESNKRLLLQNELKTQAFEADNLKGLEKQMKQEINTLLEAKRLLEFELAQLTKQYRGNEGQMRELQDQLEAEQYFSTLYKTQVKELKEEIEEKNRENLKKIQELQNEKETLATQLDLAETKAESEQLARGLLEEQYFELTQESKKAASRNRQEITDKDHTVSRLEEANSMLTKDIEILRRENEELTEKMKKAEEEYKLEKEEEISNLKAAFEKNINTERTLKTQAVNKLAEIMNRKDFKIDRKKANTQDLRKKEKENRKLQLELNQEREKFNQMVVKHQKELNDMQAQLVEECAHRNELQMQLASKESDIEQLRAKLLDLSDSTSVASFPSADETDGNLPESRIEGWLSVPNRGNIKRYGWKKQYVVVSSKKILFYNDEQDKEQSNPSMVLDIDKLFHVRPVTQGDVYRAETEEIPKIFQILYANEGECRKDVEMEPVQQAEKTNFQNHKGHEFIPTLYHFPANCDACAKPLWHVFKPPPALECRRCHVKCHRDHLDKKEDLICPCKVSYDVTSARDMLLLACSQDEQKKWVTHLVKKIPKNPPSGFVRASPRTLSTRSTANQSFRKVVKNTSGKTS

Question: With N#Cc1ccc(C(CN)C(=O)Nc2cccc3c(-c4cn[nH]c4)c[nH]c23)cc1 (racemic) [Example 86, 3-amino-2-(4-cyanophenyl)-N-[3-(1H-pyrazol-4-yl)-1H-indol-7-yl]propanamide] as the compound, how does the IC50 (Recombinant ROCK1) read?
Answer: 2.7 nM

Question: What about the IC50 (Recombinant ROCK2) of the same compound?
Answer: 0.98 nM

Question: How did the IC50 (Recombinant ROCK1) turn out when COc1ccccc1C(CN)C(=O)Nc1cccc2c(-c3cn[nH]c3)c[nH]c12 (racemic) [Example 84, 3-amino-2-(2-methoxyphenyl)-N-[3-(1H-pyrazol-4-yl)-1H-indol-7-yl]propanamide] was run?
Answer: 1.3 nM

Question: What about the IC50 (Recombinant ROCK2) of the same compound?
Answer: 0.96 nM

Question: With CNC(=O)OCc1cccc(C(CN)C(=O)Nc2cccc3c(-c4cn[nH]c4)c[nH]c23)c1 (single isomer, unassigned) [Example 51, 3-(1-((3-(1H-pyrazol-4-yl)-1H-indol-7-yl)amino)-3-amino-1-oxopropan-2-yl)benzyl methylcarbamate] as the compound, how does the IC50 (Recombinant ROCK1) read?
Answer: 33 nM

Question: What about the IC50 (Recombinant ROCK2) of the same compound?
Answer: 22 nM

Question: How did the IC50 (Recombinant ROCK1) turn out when COc1cccc([C@@H](C(=O)Nc2cccc3c(-c4cn[nH]c4)c[nH]c23)C2CCN(C)CC2)c1 (single isomer, unassigned) [Example 29, N-(3-(1H-pyrazol-4-yl)-1H-indol-7-yl)-2-(3-methoxyphenyl)-2-(1-methylpiperidin-4-yl) acetamide] was run?
Answer: 59 nM

Question: What about the IC50 (Recombinant ROCK2) of the same compound?
Answer: 23 nM

Question: Which IC50 (Recombinant ROCK1) does the source give for CN1CCN(CC(C(=O)Nc2cccc3c(-c4cn[nH]c4)c[nH]c23)c2cccnc2)CC1 (single isomer, unassigned) [Example 66, N-(3-(1H-pyrazol-4-yl)-1H-indol-7-yl)-3-(4-methylpiperazin-1-yl)-2-(pyridin-3-yl)propanamide] here?
Answer: 604 nM

Question: What about the IC50 (Recombinant ROCK2) of the same compound?
Answer: 310 nM

Question: For COc1cccc(C(CN2CCN(C)CC2)NC(=O)c2cccc3c(-c4cn[nH]c4)c[nH]c23)c1 (single isomer, unassigned) [Example 138, N-(1-(3-methoxyphenyl)-2-(4-methylpiperazin-1-yl)ethyl)-3-(1H-pyrazol-4-yl)-1H-indole-7-carboxamide], which IC50 (Recombinant ROCK1) is on record?
Answer: 73 nM

Question: And the IC50 (Recombinant ROCK2)?
Answer: 23 nM

Question: Which IC50 (Recombinant ROCK1) does the source give for N#Cc1cccc(C(CN)C(=O)Nc2cccc3c(-c4cn[nH]c4)c[nH]c23)c1 (single isomer, unassigned) [Example 21, N-(3-(1H-pyrazol-4-yl)-1H-indol-7-yl)-3-amino-2-(3-cyanophenyl)propanamide] here?
Answer: 125 nM

Question: What about the IC50 (Recombinant ROCK2) of the same compound?
Answer: 70 nM

Question: Cc1cccc(C(CN)C(=O)Nc2cccc3c(-c4cn[nH]c4)c[nH]c23)n1 (racemic) [Example 93, 3-amino-2-(6-methylpyridin-2-yl)-N-[3-(1H-pyrazol-4-yl)-1H-indol-7-yl]propanamide] was tested. Which IC50 (Recombinant ROCK1) did it give?
Answer: 20 nM

Question: What about the IC50 (Recombinant ROCK2) of the same compound?
Answer: 13 nM

Question: Which results are given for Cc1cncc(C(CN)C(=O)Nc2cccc3c(-c4cn[nH]c4)c[nH]c23)c1 (single isomer, unassigned) [Example 63, N-(3-(1H-pyrazol-4-yl)-1H-indol-7-yl)-3-amino-2-(5-methylpyridin-3-yl)propanamide]?
Answer: IC50 (Recombinant ROCK1): 0.43 nM; IC50 (Recombinant ROCK2): 0.24 nM

Question: What does the source list for NCC(C(=O)Nc1cccc2c(-c3cn[nH]c3)c[nH]c12)c1cccc(O)c1 (single isomer, unassigned) [Example 64, N-(3-(1H-pyrazol-4-yl)-1H-indol-7-yl)-3-amino-2-(3-hydroxyphenyl)propanamide]?
Answer: IC50 (Recombinant ROCK1): 0.37 nM; IC50 (Recombinant ROCK2): 0.19 nM

Question: Which IC50 (Recombinant ROCK1) does the source give for NCC(C(=O)Nc1cccc2c(-c3cn[nH]c3)c[nH]c12)C1CCCC1 (racemic) [Example 95, 3-amino-2-cyclopentyl-N-[3-(1H-pyrazol-4-yl)-1H-indol-7-yl]propanamide] here?
Answer: 3.7 nM

Question: What about the IC50 (Recombinant ROCK2) of the same compound?
Answer: 2.3 nM

Question: Which results are given for CC(=O)Nc1ccc(C(CN)C(=O)Nc2cccc3c(-c4cnn(C(=O)OC(C)(C)C)c4)c[nH]c23)cc1 (racemic) [Example 92, tert-butyl 4-{7-[3-amino-2-(4-acetamidophenyl)propanamido]-1H-indol-3-yl}pyrazole-1-carboxylate]?
Answer: IC50 (Recombinant ROCK1): 16 nM; IC50 (Recombinant ROCK2): 6 nM

Question: What does the source list for NCC(C(=O)Nc1cccc2c(-c3cn[nH]c3)c[nH]c12)C1CCCCC1 (single isomer, unassigned) [Example 24, N-(3-(1H-pyrazol-4-yl)-1H-indol-7-yl)-3-amino-2-cyclohexylpropanamide]?
Answer: IC50 (Recombinant ROCK1): 4 nM; IC50 (Recombinant ROCK2): 3 nM

Question: How did the IC50 (Recombinant ROCK1) turn out when COc1cccc(C(CN)C(=O)Nc2cccc3c(-c4cn[nH]c4)c[nH]c23)c1 (racemic) [Example 16, N-(3-(1H-pyrazol-4-yl)-1H-indol-7-yl)-3-amino-2-(3-methoxyphenyl)propanamide] was run?
Answer: 0.84 nM

Question: What about the IC50 (Recombinant ROCK2) of the same compound?
Answer: 0.37 nM

Question: How did the IC50 (Recombinant ROCK1) turn out when COc1ccc(C(CN)NC(=O)c2cccc3c(-c4cn[nH]c4)c[nH]c23)cc1 (single isomer, unassigned) [Example 145, N-(2-amino-1-(4-methoxyphenyl)ethyl)-3-(1H-pyrazol-4-yl)-1H-indole-7-carboxamide] was run?
Answer: 46 nM

Question: And the IC50 (Recombinant ROCK2)?
Answer: 20 nM

Question: What does the source list for COCCOc1ccc(C(CN)C(=O)Nc2cccc3c(-c4cn[nH]c4)c[nH]c23)cc1 (racemic) [Example 88, 3-amino-2-[4-(2-methoxyethoxy)phenyl]-N-[3-(1H-pyrazol-4-yl)-1H-indol-7-yl]propanamide]?
Answer: IC50 (Recombinant ROCK1): 17 nM; IC50 (Recombinant ROCK2): 9.3 nM

Question: NCC(C(=O)Nc1cccc2c(-c3cn[nH]c3)c[nH]c12)c1ccc(C(N)=O)cc1 (single isomer, unassigned) [Example 113, 4-(1-((3-(1H-pyrazol-4-yl)-1H-indol-7-yl)amino)-3-amino-1-oxopropan-2-yl)benzamide] was tested. Which IC50 (Recombinant ROCK1) did it give?
Answer: 110 nM

Question: And the IC50 (Recombinant ROCK2)?
Answer: 43 nM

Question: With NCC(C(=O)Nc1cccc2c(-c3cn[nH]c3)c[nH]c12)c1ccc(CO)cc1 (racemic) [Example 1, N-(3-(1H-pyrazol-4-yl)-1H-indol-7-yl)-3-amino-2-(4-(hydroxymethyl)phenyl)propanamide] as the compound, how does the IC50 (Recombinant ROCK1) read?
Answer: 0.59 nM

Question: What about the IC50 (Recombinant ROCK2) of the same compound?
Answer: 0.27 nM

Question: With NCC(C(=O)Nc1cccc2c(-c3cn[nH]c3)c[nH]c12)c1ccccn1 (racemic) [Example 98, 3-amino-N-[3-(1H-pyrazol-4-yl)-1H-indol-7-yl]-2-(pyridin-2-yl)propanamide] as the compound, how does the IC50 (Recombinant ROCK1) read?
Answer: 9.2 nM

Question: What about the IC50 (Recombinant ROCK2) of the same compound?
Answer: 4.3 nM

Question: How did the IC50 (Recombinant ROCK1) turn out when CN1CCN(C(C(=O)Nc2cccc3c(-c4cn[nH]c4)c[nH]c23)C2CCCCC2)CC1 (racemic) [Example 129, 2-cyclohexyl-2-(4-methylpiperazin-1-yl)-N-[3-(1H-pyrazol-4-yl)-1H-indol-7-yl]acetamide] was run?
Answer: 1.7 nM

Question: And the IC50 (Recombinant ROCK2)?
Answer: 1.7 nM

Question: Which results are given for CP(C)(=O)c1cccc(C(CN)NC(=O)c2cccc3c(-c4cn[nH]c4)c[nH]c23)c1 (racemic) [Example 151, (rac)-N-{2-amino-1-[3-(dimethylphosphoryl)phenyl]ethyl}-3-(1H-pyrazol-4-yl)-1H-indole-7-carboxamide]?
Answer: IC50 (Recombinant ROCK1): 204 nM; IC50 (Recombinant ROCK2): 71 nM

Question: NC[C@@H](NC(=O)c1cncc2c(-c3cn[nH]c3)c[nH]c12)c1ccccc1 [Example 148, N-[(1S)-2-amino-1-phenyl-ethyl]-3-(1H-pyrazol-4-yl)-1H-pyrrolo[3,2-c]pyridine-7-carboxamide] was tested. Which IC50 (Recombinant ROCK1) did it give?
Answer: 21 nM

Question: What about the IC50 (Recombinant ROCK2) of the same compound?
Answer: 5.7 nM

Question: Which IC50 (Recombinant ROCK1) does the source give for NCC(C(=O)Nc1cccc2c(-c3cn[nH]c3)c[nH]c12)c1cccc(O)c1 (single isomer, unassigned) [Example 65, N-(3-(1H-pyrazol-4-yl)-1H-indol-7-yl)-3-amino-2-(3-hydroxyphenyl)propanamide] here?
Answer: 4.4 nM

Question: What about the IC50 (Recombinant ROCK2) of the same compound?
Answer: 2.5 nM

Question: Which results are given for COc1cccc(C(CN)NC(=O)c2cccc3c(-c4cn[nH]c4)c[nH]c23)c1 (single isomer, unassigned) [Example 139, N-(2-amino-1-(3-methoxyphenyl)ethyl)-3-(1H-pyrazol-4-yl)-1H-indole-7-carboxamide]?
Answer: IC50 (Recombinant ROCK1): 5.5 nM; IC50 (Recombinant ROCK2): 3.1 nM

Question: How did the IC50 (Recombinant ROCK1) turn out when N[C@@H](C(=O)Nc1cccc2c(-c3cn[nH]c3)c[nH]c12)c1cccnc1 (single isomer, unassigned) [Example 131, N-(3-(1H-pyrazol-4-yl)-1H-indol-7-yl)-2-amino-2-(pyridin-3-yl) acetamide] was run?
Answer: 22 nM

Question: What about the IC50 (Recombinant ROCK2) of the same compound?
Answer: 12 nM

Question: Which IC50 (Recombinant ROCK1) does the source give for O=C(Nc1cccc2c(-c3cn[nH]c3)c[nH]c12)C1CNCc2ccccc21 (racemic) [Example 133, N-(3-(1H-pyrazol-4-yl)-1H-indol-7-yl)-1,2,3,4-tetrahydroisoquinoline-4-carboxamide] here?
Answer: 44 nM

Question: And the IC50 (Recombinant ROCK2)?
Answer: 31 nM

Question: With Cc1cccc(C(CN)C(=O)Nc2cccc3c(-c4cn[nH]c4)c[nH]c23)c1 (racemic) [Example 87, N-(3-(1H-pyrazol-4-yl)-1H-indol-7-yl)-3-amino-2-(m-tolyl)propanamide] as the compound, how does the IC50 (Recombinant ROCK1) read?
Answer: 0.29 nM

Question: What about the IC50 (Recombinant ROCK2) of the same compound?
Answer: 0.18 nM

Question: Cn1ccc(C(CN)C(=O)Nc2cccc3c(-c4cn[nH]c4)c[nH]c23)cc1=O (racemic) [Example 103, 3-amino-2-(1-methyl-2-oxopyridin-4-yl)-N-[3-(1H-pyrazol-4-yl)-1H-indol-7-yl]propanamide] was tested. Which IC50 (Recombinant ROCK1) did it give?
Answer: 1.4 nM

Question: And the IC50 (Recombinant ROCK2)?
Answer: 0.53 nM

Question: With CN1CCN(C(C(=O)Nc2cccc3c(-c4cn[nH]c4)c[nH]c23)c2ccccc2)CC1 (single isomer, unassigned) [Example 48, N-(3-(1H-pyrazol-4-yl)-1H-indol-7-yl)-2-(4-methylpiperazin-1-yl)-2-phenylacetamide] as the compound, how does the IC50 (Recombinant ROCK1) read?
Answer: 1.6 nM

Question: What about the IC50 (Recombinant ROCK2) of the same compound?
Answer: 0.84 nM

Question: For CP(C)(=O)c1ccc(C(CN)C(=O)Nc2cccc3c(-c4cn[nH]c4)c[nH]c23)cc1 (racemic) [Example 97, 3-amino-2-[4-(dimethylphosphoryl)phenyl]-N-[3-(1H-pyrazol-4-yl)-1H-Indol-7-yl]propanamide], which IC50 (Recombinant ROCK1) is on record?
Answer: 122 nM

Question: What about the IC50 (Recombinant ROCK2) of the same compound?
Answer: 28 nM

Question: NCC(C(=O)Nc1cccc2c(-c3cn[nH]c3)c[nH]c12)C1CCOCC1 (single isomer, unassigned) [Example 27, N-(3-(1H-pyrazol-4-yl)-1H-indol-7-yl)-3-amino-2-(tetrahydro-2H-pyran-4-yl)propanamide] was tested. Which IC50 (Recombinant ROCK1) did it give?
Answer: 87 nM

Question: And the IC50 (Recombinant ROCK2)?
Answer: 66 nM

Question: What does the source list for CC(=O)NCc1ccc(C(CN)C(=O)Nc2cccc3c(-c4cn[nH]c4)c[nH]c23)cc1 (racemic) [Example 99, N-(3-(1H-pyrazol-4-yl)-1H-indol-7-yl)-2-(4-(acetamidomethyl)phenyl)-3-aminopropanamide]?
Answer: IC50 (Recombinant ROCK1): 3.2 nM; IC50 (Recombinant ROCK2): 1.1 nM

Question: What does the source list for NCC(C(=O)Nc1cccc2c(-c3cn[nH]c3)c[nH]c12)c1ccc(F)cc1 (racemic) [Example 85, 3-amino-2-(4-fluorophenyl)-N-[3-(1H-pyrazol-4-yl)-1H-indol-7-yl]propanamide]?
Answer: IC50 (Recombinant ROCK1): 0.81 nM; IC50 (Recombinant ROCK2): 0.52 nM
